Consider 63 compounds from PubChem BioAssay AID743090 (Broad Institute, 2013).

Active and inactive are the calls of the source.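 Rule for the calls: active = IC50 below 10 µM in A549 cells, with the call taken as the median across tests; inactive = IC50 above 10 µM in A549 cells.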

The test system of this test is A549 viability, CellTiter-Glo luminescence, 48 h. Put plainly: cytotoxicity in TP53 wild-type A549 cells – cell-based, CellTiter-Glo luminescence, dry powder, selectivity assay for TP53-mutant selective toxicity project, dose response (AID 743090). (Cellular ATP, detected with luciferase, serves as a proxy for viable cell number.)

As for `C[C@@H]1CC(=O)NN=C1c1ccc(I)cc1`, the IC50 is > 10 µM (inactive).
The result for `C[C@@H]1CC(=O)NN=C1c1ccccc1` reads > 10 µM (inactive); that for `CC1(C)C(=O)NN=C1c1ccc(N)cc1`, > 10 µM (inactive); that for `CC1CC(=O)NN=C1c1ccc(N2CCN(C(=O)Cc3ccc(Cl)cc3Cl)CC2)cc1` (stereo not drawn), > 10 µM (inactive).
The result for `CCCc1ccc(C2=NNC(=O)C[C@H]2C)cc1` reads > 10 µM (inactive); that for `C[C@@H]1CC(=O)NN=C1c1ccc(N)c(Br)c1`, > 10 µM (inactive); that for `CC1CC(=O)NN=C1c1cccs1` (stereo not drawn), > 10 µM (inactive).
Then `C[C@@H]1CC(=O)NN=C1c1ccc(N2CCOCC2)cc1`, with > 10 µM (inactive); and `CC1(C)C(=O)NN=C1c1ccc([N+](=O)[O-])cc1`, with > 10 µM (inactive).
As for `C[C@@H]1CC(=O)NN=C1c1ccc(Cl)cc1`, the IC50 was > 10 µM (inactive).
`C#Cc1cc(C2=NNC(=O)C[C@H]2C)ccc1NC(C)=O`: the IC50 is > 10 µM (inactive).
For `CC(=O)Nc1ccc(C2=NNC(=O)C[C@H]2C)cc1C(C)=O`, the IC50 is > 10 µM (inactive).
With `C[C@H]1CC(=O)NN=C1c1ccc(F)c(F)c1`, the IC50 was > 10 µM (inactive).
The result for `O=C1CC(c2ccccc2)=NN1` reads > 10 µM (inactive).
Then `CC(=O)Nc1ccc(C2=NNC(=O)C[C@H]2C)cc1[N+](=O)[O-]`, with > 10 µM (inactive); and `CC(=O)Nc1ccc(C2=NNC(=O)C[C@H]2C)cc1`, with > 10 µM (inactive).
The result for `C[C@@H]1CC(=O)NN=C1c1ccc(N)c([N+](=O)[O-])c1` reads > 10 µM (inactive); that for `CC(=O)Nc1ccc(C2=NNC(=O)C[C@H]2C)cc1N`, > 10 µM (inactive).
For `CCN(CC)c1ccc(C2=NNC(=O)C[C@H]2C)cc1`, the IC50 is > 10 µM (inactive).
Consider `C[C@@H]1CC(=O)NN=C1c1ccc(-c2cncnc2)cc1`, for which the IC50 was > 10 µM (inactive).
Then `C[C@@H]1CC(=O)NN=C1c1ccc([Si](C)(C)C)cc1`, with > 10 µM (inactive); and `CCN(CC)c1ccc(-c2nc(C(C)C)no2)cc1[N+](=O)[O-]`, with > 10 µM (inactive); and `CC1CC(=O)NN=C1c1ccc(F)c(F)c1` (stereo not drawn), with > 10 µM (inactive).
For the compound `CCN1N=C(c2ccc(N(CC)CC)cc2)[C@H](C)CC1=O`, the IC50 is > 10 µM (inactive).
The result for `C[C@@H]1CC(=O)NN=C1c1ccc(N2CCCCC2=O)cc1` reads > 10 µM (inactive); that for `C[C@@H]1CC(=O)NN=C1c1ccc(N2CCCC2=O)cc1`, > 10 µM (inactive); that for `CC1CC(=O)NN=C1c1ccc(N2CCOCC2)c(F)c1` (stereo not drawn), > 10 µM (inactive).
The result for `CCN(CC)c1ccc(C(=O)Nc2ccccc2)cc1[N+](=O)[O-]` reads > 10 µM (inactive).
Consider `CC1C(=O)NN=C1c1ccc([N+](=O)[O-])cc1` (stereo not drawn), for which the IC50 was > 10 µM (inactive).
The result for `CC1CC(=O)N(c2ccccc2)N=C1c1ccc(Cl)cc1` (stereo not drawn) reads > 10 µM (inactive); that for `C[C@@H]1CC(=O)NN=C1c1ccc(N2CCN(C)CC2)cc1`, > 10 µM (inactive); that for `CCN(CC)c1ccc(C2=NNC(=O)CC2C)cc1N` (stereo not drawn), > 10 µM (inactive).
The result for `C[C@@H]1CC(=O)NN=C1c1ccc(F)cc1` (racemic) reads > 10 µM (inactive); that for `CCN(CC)c1ccc(C2=NNC(=O)C2(C)C)cc1`, > 10 µM (inactive).
Turning to `C[C@@H]1CC(=O)NN=C1c1ccc(C2=CCCCC2)cc1`, the IC50 is > 10 µM (inactive).
For `Cc1nc2ccc(C3=NNC(=O)C[C@H]3C)cc2[nH]1`, the IC50 is > 10 µM (inactive).
The result for `C[C@@H]1CC(=O)NN=C1c1ccc(N2CCCCC2)cc1` reads > 10 µM (inactive).
Then `C[C@@H]1CC(=O)NN=C1c1ccc(N2CCOCC2)c(F)c1`, with > 10 µM (inactive).
The result for `CCN(CC)c1ccc(C2=NNC(=O)CC2C)cc1NC(C)=O` (stereo not drawn) reads > 10 µM (inactive); that for `CCN(CC)c1ccc(C2=NNC(=O)C[C@H]2C)cc1[N+](=O)[O-]`, > 10 µM (inactive).
For `C[C@@H]1CC(=O)NN=C1c1ccc(F)c(F)c1`, the IC50 was > 10 µM (inactive).
The result for `C[C@@H]1CC(=O)NN=C1c1ccc(N2CCCCS2(=O)=O)cc1` reads > 10 µM (inactive); that for `CCNc1ccc(C2=NNC(=O)C[C@H]2C)cc1`, > 10 µM (inactive); that for `CCN(CC)c1ccc(C2=NNC(=O)CC2C)cc1[N+](=O)[O-]` (stereo not drawn), > 10 µM (inactive).
The result for `O=C1C[C@H]2CCc3cc(N4CCOCC4)ccc3C2=NN1` (racemic) reads > 10 µM (inactive); that for `CC(=O)Nc1ccc(C2=NNC(=O)C[C@H]2C)cc1Br`, > 10 µM (inactive); that for `CC(=O)N1CCN(c2ccc(C3=NNC(=O)CC3C)cc2F)CC1` (stereo not drawn), > 10 µM (inactive).
Then `CC1(C)C(=O)NN=C1c1ccc(N2CCOCC2)cc1`, with > 10 µM (inactive); and `C[C@@H]1CC(=O)NN=C1c1ccc(-n2cnnc2)cc1`, with > 10 µM (inactive).
With `C/C=C/c1ccc(C2=NNC(=O)C[C@H]2C)cc1`, the IC50 is > 10 µM (inactive).
As for `C[C@@H]1CC(=O)NN=C1c1ccc(C2CCCCC2)cc1`, the IC50 is > 10 µM (inactive).
Then `C[C@@H]1CC(=O)NN=C1c1ccc(N2CCCOC2=O)cc1`, with > 10 µM (inactive); and `C[C@@H]1CC(=O)NN=C1c1ccc(N2CCOCC2)cc1` (racemic), with > 10 µM (inactive).
For the compound `CC(=O)Nc1ccc(-c2n[nH]c(=O)cc2C)cc1`, the IC50 was > 10 µM (inactive).
The result for `CCN(CC)c1ccc(C2=NNC(=O)CC2C)cc1NCCOCCOCCNC(=O)OC(C)(C)C` (stereo not drawn) reads > 10 µM (inactive); that for `CCN(CC)c1ccc(C2=NNC(=O)CC2C)cc1` (stereo not drawn), > 10 µM (inactive); that for `C[C@H]1CC(=O)NN=C1c1ccc(N2CCOCC2)c(F)c1`, > 10 µM (inactive).
The result for `CCNc1ccc(C2=NNC(=O)C[C@H]2C)cc1[N+](=O)[O-]` reads > 10 µM (inactive); that for `Cc1cc(=O)[nH]nc1-c1ccc(N)cc1`, > 10 µM (inactive); that for `Cc1ccc(CCC(=O)N2CCN(c3ccc(C4=NNC(=O)CC4C)cc3)CC2)cc1` (stereo not drawn), > 10 µM (inactive).
Then `CC1(C)C(=O)NN=C1c1ccc(Cl)cc1`, with > 10 µM (inactive).
`CC(=O)Nc1ccc(C2=NNC(=O)CC2C)cc1` (stereo not drawn): the IC50 is > 10 µM (inactive).
The result for `CCN(CC)c1ccc(-c2n[nH]c(=O)cc2C)cc1` reads > 10 µM (inactive).

As a reminder, the IC50 is the midpoint of a concentration-inhibition curve.
